The IC50 is the concentration needed to halve the response being measured.

IC50 data for 42 molecules are collected here from patent publication US6943183B2 (Pfizer Inc, priority 2000, dated 2005).

The target in this test is T1, SF9 affinity purified rat FPT (Rattus norvegicus, UniProt Q02293+Q04631).
T1 construct: made in house; host or cells: Sf9 insect cells
The experiment in a line: PFT (FPT) inhibitory activity assay, radiolabeled farnesyl pyrophosphate and biotinyl peptide, streptavidin beads. As to conditions: HEPES buffer pH 7.4, 30° C., 30 minutes; read-out: FTase IC50. It counts as biochemical. The gist of the method:
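Rat FPT expressed in SF9 cells was incubated 30 minutes at 30° C. with compound (in 10% DMSO), radiolabeled farnesyl pyrophosphate and biotinylated peptide. Buffer: HEPES pH 7.4, ZnCl2 20 μM, MgCl2 and DTT 5 mM each, 0.1% PEG 8000, 5 mM potassium phosphate (also run without phosphate). Product captured on streptavidin beads in magnesium acetate/H3PO4 stop buffer.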
Regarding `CCCCC(Cn1ccnc1)Oc1ccc2c(c1CS(=O)(=O)c1ccccc1)CCCC2=O` (stereo not drawn) [Compound 63m, 6-{[1-(1H-Imidazol-ylmethyl)pentyl]oxy}-5-[(phenylsulfonyl)methyl]-3,4-dihydro-1(2H)-naphthalenone], the IC50 amounted to 1 nM.

For the molecule `CCC(Cn1ccnc1)Oc1ccc2c(c1CS(=O)(=O)c1ccccc1)CCCC2=O` (stereo not drawn) [Compound 63n, 6-[1-(1H-Imidazol-1-ylmethyl)propoxy]-5-[(phenylsulfonyl)methyl]-3,4-dihydro-1(2H)-naphthalenone], the IC50 turned out to be 7 nM.

As to `O=C1CCCc2c1ccc(OC(Cn1ccnc1)c1cccs1)c2CS(=O)(=O)c1ccccn1` (stereo not drawn) [Compound 63p, 6-(2-Imidazol-yl-1-thiophen-2-yl-ethoxy)-5-(pyridine-2-sulfonylmethyl)-3,4-dihydro-2H-naphthalen-1-one], the IC50 turned out to be 0.55 nM.

Regarding `O=C1CCCc2c1ccc(OC(Cn1ccnc1)c1nccs1)c2CS(=O)(=O)c1ccccn1` (stereo not drawn) [Compound 63q, 6-(2-Imidazol-1-yl-1-thiazol-2-yl-ethoxy)-5-(pyridine-2-sulfonylmethyl)-3,4-dihydro-2H-naphthalen-1-one], the IC50 came out at 0.5 nM.

For `COCc1c(O[C@H](Cn2ccnc2)c2ccccc2)ccc2c1CCCC2=O` [Compound 64], the IC50 was found to be 11 nM.

For `COc1ccc(OCc2c(O[C@H](Cn3ccnc3)c3ccccc3)ccc3c2CCCC3=O)cc1` [Compound 65], the IC50 turned out to be 0.4 nM.

For the molecule `O=C1CCCc2c1ccc(O[C@H](Cn1ccnc1)c1ccccc1)c2COc1ccccc1` [Compound 66, 6-((1S)-2-Imidazolyl-1-phenylethoxy)-5-(phenoxymethyl)-2,3,4-trihydronaphthalen-1-one], the IC50 was 12 nM.

Regarding `CC(C)(C)c1cccc(OCc2c(O[C@H](Cn3ccnc3)c3ccccc3)ccc3c2CCCC3=O)c1` [Compound 67], the IC50 was 1 nM.

`O=C1CCCc2c1ccc(O[C@H](Cn1ccnc1)c1ccccc1)c2COc1cccc(Cl)c1` [Compound 69]: the IC50 stood at 0.7 nM.

As for `Cc1ccc(C(C)C)cc1OCc1c(O[C@H](Cn2ccnc2)c2ccccc2)ccc2c1CCCC2=O` [Compound 70], the IC50 came out at 7 nM.

`COc1cc(OC)cc(OCc2c(O[C@H](Cn3ccnc3)c3ccccc3)ccc3c2CCCC3=O)c1` [Compound 71, 6-((1S)-2-imidazolyl-1-phenylethoxy)-5-[(3,5-dimethoxyphenoxy)methyl]-2,3,4-trihydronaphthalen-1-one]: the IC50 worked out at 4 nM.

For `CC(C)c1ccc(OCc2c(O[C@H](Cn3ccnc3)c3ccccc3)ccc3c2CCCC3=O)cc1` [Compound 72], the IC50 stood at 5 nM.

For `O=C1CCCc2c1ccc(O[C@H](Cn1ccnc1)c1ccccc1)c2COc1ccc2c(c1)CCCC2` [Compound 73, 6-((1S)-2-Imidazolyl-1-phenylethoxy)-5-(2-5,6,7,8-tetrahydro-naphthyloxymethyl)-2,3,4-trihydronaphthalen-1-one], the IC50 is 2 nM.

In the case of `CC(C)c1cccc(OCc2c(O[C@H](Cn3ccnc3)c3ccccc3)ccc3c2CCCC3=O)c1` [Compound 74], the IC50 came out at 3 nM.

`O=C1CCCc2c1ccc(O[C@H](Cn1ccnc1)c1ccccc1)c2COc1cccc2[nH]ccc12` [Compound 76, 6-((1S)-2-Imidazolyl-1-phenylethoxy)-5-(indol-4-yloxymethyl)-2,3,4-trihydronaphthalen-1-one]: the IC50 worked out at 1 nM.

On to `CCOc1ccccc1OCc1c(O[C@H](Cn2ccnc2)c2ccccc2)ccc2c1CCCC2=O` [Compound 78, 6-((1S)-2-Imidazolyl-4-phenylethoxy)-5-[(2-ethoxyphenoxy)methyl]-2,3,4-trihydronaphthalen-1-one], for which the IC50 is 0.8 nM.

Turning to `CCOc1ccc(OCc2c(O[C@H](Cn3ccnc3)c3ccccc3)ccc3c2CCCC3=O)cc1` [Compound 79], the IC50 is 0.8 nM.

`COC(=O)c1ccccc1OCc1c(O[C@H](Cn2ccnc2)c2ccccc2)ccc2c1CCCC2=O` [Compound 81, Methyl 2-{[2-((1S)-2-imidazolyl-1-phenylethoxy)-5-oxo-6,7,8-trihydronaphthyl]methoxy}benzoate]: the concentration for half-maximal inhibition (IC50) stood at 4 nM.

As for `Cc1ccc(OCc2c(O[C@H](Cn3ccnc3)c3ccccc3)ccc3c2CCCC3=O)cn1` [Compound 82], the IC50 was found to be 9 nM.

In the case of `Cc1ccc(OCc2c(O[C@H](Cn3ccnc3)c3ccccc3)ccc3c2CCCC3=O)cn1` [Compound 83, 6-((1S)-2-imidazolyl-1-phenylethoxy)-5-[(6-methyl(3-pyridyloxy))methyl]-2,3,4-trihydronaphthalen-1-one], the IC50 was determined as 18 nM.

In the case of `O=C1CCCc2c1ccc(O[C@H](Cn1ccnc1)c1ccccc1)c2COc1ccc2ccccc2c1` [Compound 85], the IC50 was found to be 10 nM.

Regarding `COC(=O)c1cccc(OCc2c(O[C@H](Cn3ccnc3)c3ccccc3)ccc3c2CCCC3=O)c1` [Compound 88, Methyl 3-{[2-((1S)-2-imidazolyl-1-phenylethoxy)-5-oxo-6,7,8-trihydronaphthyl]methoxy}benzoate], the IC50 was determined as 7 nM.

In the case of `Cc1cc(C)c(OCc2c(O[C@H](Cn3ccnc3)c3ccccc3)ccc3c2CCCC3=O)c(C)c1` [Compound 89, 6-((1S)-2-Imidazolyl-1-phenylethoxy)-5-[(2,4,6-trimethylphenoxy)methyl]-2,3,4-trihydronaphthalen-1-one], the IC50 is 7 nM.

Consider `O=C1CCCc2c1ccc(O[C@H](Cn1ccnc1)c1ccccc1)c2COc1ccc2c(c1)OCO2` [Compound 92, 6-((1S)-2-imidazolyl-1-phenylethoxy)-5-(2H-benzo[d]1,3-dioxolan-5-yloxymethyl)-2,3,4-trihydronaphthalen-1-one], for which the IC50 turned out to be 4 nM.

With `O=C1CCCc2c1ccc(O[C@H](Cn1ccnc1)c1ccccc1)c2COc1ccc2c(c1)OCO2` [Compound 93, 6-((1S)-2-Imidazolyl-1-phenylethoxy)-5-(2H-benzo[d]1,3-dioxolan-5-yloxymethyl)-2,3,4-trihydronaphthalen-1-one], the IC50 turned out to be 3 nM.

For the molecule `O=C1CCCc2c1ccc(O[C@H](Cn1ccnc1)c1ccccc1)c2COc1cccc2cccnc12` [Compound 94], the IC50 was 3 nM.

Turning to `O=C1CCCc2c1ccc(O[C@H](Cn1ccnc1)c1ccccc1)c2COc1ccc(OC(F)(F)F)cc1` [Compound 96, 6-((1S)-2-Imidazolyl-1-phenylethoxy)-5-{[4-(trifluoromethoxy)phenoxy]methyl}-2,3,4-trihydronaphthalen-1-one], the IC50 is 5 nM.

`O=C1CCCc2c1ccc(O[C@H](Cn1ccnc1)c1ccccc1)c2COc1ccc(Oc2ccccc2)cc1` [Compound 97]: the IC50 is 6 nM.

For the molecule `Cc1cccc(OCc2c(O[C@H](Cn3ccnc3)c3ccccc3)ccc3c2CCCC3=O)c1` [Compound 99], the IC50 turned out to be 5 nM.

As to `Cc1ccc(OCc2c(O[C@H](Cn3ccnc3)c3ccccc3)ccc3c2CCCC3=O)cc1` [Compound 100], the IC50 worked out at 4 nM.

As for `O=C1CCCc2c1ccc(O[C@H](Cn1ccnc1)c1ccccc1)c2COc1ccccc1F` [Compound 101], the IC50 came to 3 nM.

In the case of `O=C1CCCc2c1ccc(O[C@H](Cn1ccnc1)c1ccccc1)c2COc1cccc(F)c1` [Compound 102], the IC50 stood at 5 nM.

On to `O=C1CCCc2c1ccc(O[C@H](Cn1ccnc1)c1ccccc1)c2COc1ccc(F)cc1` [Compound 103, 6-((1S)-2-Imidazolyl-1-phenylethoxy)-5-[(4-fluorophenoxy)methyl]-2,3,4-trihydronaphthalen-1-one], for which the IC50 was 5 nM.

Regarding `O=C1CCCc2c1ccc(O[C@H](Cn1ccnc1)c1ccccc1)c2COc1cccc2ccccc12` [Compound 104, 6-((1S)-2-Imidazolyl-1-phenylethoxy)-5-(naphenyloxymethyl)-2,3,4-trihydronaphthalen-1-one], the IC50 was determined as 5 nM.

For the molecule `COc1cccc(OCc2c(O[C@H](Cn3ccnc3)c3ccccc3)ccc3c2CCCC3=O)c1` [Compound 105, 6-((1S)-2-Imidazolyl-1-phenylethoxy)-5-[(3-methoxyphenoxy)methyl]-2,3,4-trihydronaphthalen-1-one], the 50% inhibitory concentration (IC50) was 5 nM.

`O=C1CCCc2c1ccc(O[C@H](Cn1ccnc1)c1ccccc1)c2COc1ccccc1Cl` [Compound 106]: the IC50 is 6 nM.

For the molecule `O=C1CCCc2c1ccc(O[C@H](Cn1ccnc1)c1ccccc1)c2COc1ccc2ncccc2c1` [Compound 107, 6-((1S)-2-Imidazolyl-1-phenylethoxy)-5-(6-quinolyloxymethyl)-2,3,4-trihydronaphthalen-1-one], the IC50 was determined as 10 nM.

In the case of `O=C1CCCc2c1ccc(O[C@H](Cn1ccnc1)c1ccccc1)c2COc1ccc2ncccc2c1` [Compound 108, 6-((1S)-2-Imidazolyl-1-phenylethoxy)-5-(6-quinolyloxymethyl)-2,3,4-trihydronaphthalen-1-one], the IC50 came out at 3 nM.

With `O=C1CCCc2c1ccc(O[C@H](Cn1ccnc1)c1ccccc1)c2CSc1ccc(Br)cc1` [Compound 109, 6-((1S)-2-Imidazolyl-1-phenylethoxy)-5-[(4-bromophenylthio)methyl]-2,3,4-trihydronaphthalen-1-one], the IC50 stood at 30 nM.

As to `O=C1CCCc2c1ccc(O[C@H](Cn1ccnc1)c1ccccc1)c2CSC1CCCCC1` [Compound 117], the IC50 was found to be 1 nM.

Regarding `O=C(O)c1cccnc1SCc1c(O[C@H](Cn2ccnc2)c2ccccc2)ccc2c1CCCC2=O` [Compound 126, 2-{[2-((1S)-2-Imidazolyl-1-phenylethoxy)-5-oxo-6,7,8-trihydronaphenyl]methylthio}pyridine-3-carboxylic acid], the IC50 is 19 nM.

Consider `COc1ccc([S+]([O-])Cc2c(O[C@H](Cn3ccnc3)c3ccccc3)ccc3c2CCCC3=O)cc1` (stereo partly drawn) [Compound 141, 6-((S)-2-Imidazol-1-yl-1-phenyl-ethoxy)-5-(4-methoxy-benzenesulfinylmethyl)-3,4-dihydro-2H-napthalen-1-one], for which the IC50 is 0.35 nM.
